The test system of data set [1] is osteocalcin (OC). Conditions: cited from earlier work.
The test system of data set [2] is circulating OC and MGP. The experiment in a line: Gla-protein carboxylation (circulating OC and MGP) after vitamin K supplementation. In kind it is in vivo, human. An excerpt: (§1) Recommended doses of vitamin K for treating transplant patients. […] On top of this, chronic kidney disease (CKD) patients are known to have much more pronounced vitamin K insufficiency than healthy subjects {Schlieper G et al. J. Am. Soc. Nephrol., 22 (2011) 387-395}. Therefore, the estimated range for optimal effect is dependent on the disease state and may be higher than estimated from literature data. […] This was shown in archived samples from a vitamin K1-intervention study initially described in 2003 {Braam L A et al. Am. J. Sports Med. 31 (2003) 889-895}. […] This was shown in archived samples from a vitamin K1-intervention study initially described in 2003 {Braam L A et al. Calcif. Tissue Int. 73 (2003) 21-26}. During the first 6 months of the study, circulating ucOC in the vitamin K-treated group decreased from 4.2 ng/mL to 0.8 ng/mL, whereas in the control samples a non-significant increase was observed from 4.4 ng/mL to 4.7 ng/mL. […] 109 (2007) 3279-3283}.
(§2) the optimal dose for Gla-protein carboxylation in subjects free from CKD lies between 5 and 2,000 μg/day, preferably between 50 and 1,000 μg/day, more preferably between 100 and 1,000 μg/day and most preferably between 200 and 500 μg/day for subjects with baseline levels in the normal range. […] The decreases of circulating dp-ucMGP and ucOC are shown in FIG. 10. • Lower doses were tested in a number of small studies with a significant effect at 200 μg/day and a half-maximum effect at 500 μg/day.
the optimal dose for Gla-protein carboxylation in subjects free from kidney disease lies between 5 and 3,000 μg/day, preferably between 50 and 2,000 μg/day, more preferably between 100 and 1,000 μg/day and most preferably between 200 and 500 μg/day for subjects with baseline levels in the normal range. […] Treatment should be guided by the circulating levels of dp-ucMGP, ucOC, or uncarboxylated species of any other suitable Gla-protein. • MK-n: The long-chain menaquinones are selected from the group menaquinone-7, menaquinone-8, menaquinone-9, and menaquinone-10. The long half-life times of the long-chain menaquinones make that the optimal dose for Gla-protein carboxylation is lower than for vitamin K1 {Schurgers L J et al. Biochim. Biophys. Acta 1570 (2002) 27-32}. […] A clear dose-dependent increase of MGP carboxylation was found, for instance, between 45 μg/day and 360 μg/day {Westenfeld R et al. Am. J. Kidney Dis. 59 (2012) 186-195}.

For data set [3] the following is noted: in vivo; cited from earlier work.
For data set [4], the system named is Matrix Gla-Protein (MGP). In words: Circulating desphospho-uncarboxylated MGP (dp-ucMGP) / MGP carboxylation in vitamin K intervention studies. The conditions noted are these: for circulating dp-ucMGP at start: baseline. In kind it is in vivo, human. The method, then:
(§3) Blood was drawn after an 8-12 h overnight fasting period to prepare serum and citrated plasma, which were subsampled and frozen at −80° C. until use. Renal allograft function was assessed as the 24 h urinary creatinine clearance (CrCl), i.e. the 24 h urinary creatinine excretion divided by the serum creatinine concentration. Vitamin K status was assessed from plasma dp-ucMGP concentrations as described elsewhere {Cranenburg EC et al. Thromb. Haemostas. 104 (2010) 811-822} and from ucOC using a commercial dual antibody ELISA test kit (Takara Shuzo Co. Ltd., Otsu, Shiga, Japan). An in-house control serum pool was run on all ELISA plates. The primary end-points of this study were death-censored graft failure and change in kidney function. Death-censored graft failure was defined as return to dialysis therapy or re-transplant. Change in kidney function was defined as estimated GFR (eGFR) at baseline subtracted by eGFR at the last follow-up visit, divided by time from baseline to follow-up and expressed in millilitres per minute per 1.73 m^2 per year. […] Calculating a slope instead of a change in eGFR therefore will underestimate a patient's true kidney function decrease. For patients who died with a functioning graft (n=78), eGFR at follow-up was defined as kidney function at the last visit to the outpatient clinic before death, and for patients with graft failure (n=42), eGFR at follow-up was defined as the eGFR at the last visit to the outpatient clinic before starting dialysis therapy or re-transplant. There was no loss to follow-up.
as §1, §2

The test system of data set [5] is osteocalcin (OC). The experiment in a line: Circulating uncarboxylated osteocalcin (ucOC) / OC carboxylation in vitamin K intervention studies. In kind it is in vivo, human. The protocol:
as §3
as §1, with “3279-3283}. […]” for “3279-3283}.”

The values that follow come from patent US20150141386A1, “USE OF VITAMIN K TO DECREASE ALLOGRAFT FAILURE AND PATIENT MORTALITY AFTER ORGAN TRANSPLANTATION” (VITAK B.V., priority 2012, published 2015).

SMILES strings stand for the structures.

For `CC1=C(C/C=C(\C)CCC[C@H](C)CCC[C@H](C)CCCC(C)C)C(=O)c2ccccc2C1=O` [K1, phylloquinone], in data set [1] (K1 140 μg/day), the “effect on the carboxylation degree of circulating OC” value is reported as “less pronounced but statistically significant effect”. In addition, the “OC and MGP carboxylation” value in data set [2] (K1 1,000 μg/day, healthy volunteers) is recorded as “substantial increase”. For the same molecule, in data set [2] (K1 10,000 μg/day, archived samples of vitamin K1-intervention study), the “carboxylation of circulating OC and MGP” value is listed as “more than 95%”. In addition, the circulating half-life time entry in data set [3] was “around 1.5 h”. The “circulating dp-ucMGP after treatment” value in data set [4] (K1 1,000 μg/day (FIG. 8)) was 112 pM; in data set [4] (K1 10,000 μg/day (FIG. 7)) it was 23 pM. Besides, the “circulating dp-ucMGP at start” value is recorded as 389 pM in data set [4] (K1 1,000 μg/day group) and 182 pM in data set [4] (K1 10,000 μg/day group). Besides, the “circulating ucOC at start” value in data set [5] (K1 1,000 μg/day group, baseline) is 4.2 ng/mL. Also, the “circulating ucOC after treatment” value in data set [5] (K1 1,000 μg/day, first 6 months of the study) is on record as 0.8 ng/mL. In data set [5] (K1 10,000 μg/day group, baseline of 2-year study), the “circulating ucOC level at start” value is reported as 4.6 ng/mL. Besides, the “circulating ucOC level after treatment” value in data set [5] (K1 10,000 μg/day, first 6 months of 2-year study, background = buffer values) was “not different from background”.
For `CC(C)=CCC/C(C)=C/CC/C(C)=C/CC/C(C)=C/CC1=C(C)C(=O)c2ccccc2C1=O` [MK-4, menaquinone-4], the “carboxylation of circulating OC” value in data set [1] (MK-4 45,000 μg/day taken for 6 months) is given as “complete carboxylation”. Moreover, in data set [2] (lower doses, small studies), the “dose with half-maximum effect on Gla-protein carboxylation” value is 500 µg/day and the “dose with significant effect on Gla-protein carboxylation” value turned out to be 200 µg/day. The circulating half-life time in data set [3] was 1 h. In addition, the “circulating dp-ucMGP change” value in data set [4] (MK-4 45,000 μg/day (FIG. 9)) is listed as “decrease”.
